Where a name gives a salt, the structure may show the parent alone. Read-outs that look alike come from different tables or passages of the source.
How the values were obtained:
[1] = Stability and compatibility of netarsudil dimesylate in boric acid-sodium borate buffer solution; type: physicochemical; settings: commercially available doses mixed in boric acid-sodium borate buffer solution, pH 4.5 to 5.4
[2] = prescribing information and literature reports of Rhopress®, cited from earlier work

compatibility with netarsudil dimesylate (white precipitate) [1] | Compound | stability in boric acid-sodium borate buffer solution ([2]; pH higher than 5.4) | stability in boric acid-sodium borate buffer solution ([2]; pH lower than 5.4, commercially available dose)
incompatible | CC(C)(C)NCC(O)COc1cccc2c1CCC(=O)N2 (centres unmarked) [carteolol hydrochloride] |  | 
incompatible | O=C(O)/C=C\C(=O)O [maleic acid] |  | 
incompatible | CC(=O)Oc1c(C)cc(OCC(O)CNC(C)C)c(C)c1C (centres unmarked) [metipranolol hydrochloride] |  | 
incompatible | CC(C)(C)NC[C@H](O)COc1nsnc1N1CCOCC1 [timolol maleate] |  | 

The remaining lines, values behind:

Compound | compatibility with netarsudil dimesylate (white precipitate) [1] | stability in boric acid-sodium borate buffer solution ([2]; pH higher than 5.4) | stability in boric acid-sodium borate buffer solution ([2]; pH lower than 5.4, commercially available dose)
CC(C)NCC(O)COc1ccc(CCOCC2CC2)cc1 (centres unmarked) [betaxolol hydrochloride] | incompatible |  | 
Cl [hydrochloric acid] | incompatible |  | 
netarsudil dimesylate |  | unstable and prone to generating precipitate | good in stability

From patent US20260027105A1, “COMPOUND MEDICINE COMPOSITION FOR TREATING GLAUCOMA AND USE OF SAME” (Shenyang Pharmaceutical University, priority 2022, published 2026)
